In patent US20150352164A1, “COMPOSITION COMPRISING THEANINE AND AN EXTRACT OF INULA RACEMOSA” (CONOPCO, INC., D/B/A UNILEVER, priority 2012, published 2015):

System: 3T3L1 (mouse preadipocytes), differentiated to mature adipocytes; adiponectin secretion
Experiment: Adiponectin assay: adiponectin secretion from differentiated 3T3L1 adipocytes, ELISA of supernatants
Format: cell-based
Conditions: for % of adiponectin (control cells taken as hundred): 48 hrs
Description: Adiponectin Assay Protocol • 3T3L1 (mouse preadipocytes) were plated on a 96 well plate at a density of 3*10^3 cells per well; • After 5 days of post confluency (a condition where the cells form a uniform layer) the cells were differentiated (a process where premature adipocytes are transformed to mature adipocytes) in differentiation medium for 10 days; • On the 11th day the matured adipocytes were treated with non cytotoxic concentrations (concentrations stated below) of the inula racemosa extract and theanine; • The cells were incubated for 48 hrs and supernatants were collected and stored. They were analysed to detect level of Adiponectin by ELISA; • The efficacy of the test ingredient was evaluated with respect to the untreated control (media control); • If any of the tested combinations of inula racemosa extract and theanine on increased adiponectin level was larger in a statistically significant way than the additive effect or individual components, then the particular combination is considered to be synergistic. To investigate the efficacy of inula racemosa and theanine in increasing adiponectin secretion from 3T3L1, the cells were treated with varying concentrations of inula racemosa (as obtained set out herein in the Materials section) and theanine in cell culture medium. The % of adiponectin from control cells were taken as hundred, upon which the treatment values were calculated. […] A range of combination varying amounts of inula racemosa extract and theanine were investigated on its joint ability for adiponectin secretion. The combinations used were (weight ratio's theanine:inula racemosa extract): 100:1 ([…]), 100:10,000 (H). This was achieved via dissolution of the components in aqueous stock solutions.

## CCNC(=O)CCC(N)C(=O)O (stereo not shown) [Theanine, 2-Amino-4-(ethylcarbamoyl)butyric acid]
0.00001% wt of inula r. extract or theanine in cell culture medium
  % of adiponectin (control cells taken as hundred): 106.7 +/− 7.4%
0.00002% wt of inula r. extract or theanine in cell culture medium
  % of adiponectin (control cells taken as hundred): 107.0 +/− 7.0%
0.00005% wt of inula r. extract or theanine in cell culture medium
  % of adiponectin (control cells taken as hundred): 136.7 +/− 7.3%
0.0001% wt of inula r. extract or theanine in cell culture medium
  % of adiponectin (control cells taken as hundred): 141.7 +/− 1.6%
0.0005% wt of inula r. extract or theanine in cell culture medium
  % of adiponectin (control cells taken as hundred): 145.8 +/− 8.2%
0.001% wt of inula r. extract or theanine in cell culture medium
  % of adiponectin (control cells taken as hundred): 156.0 +/− 8.5%
Varying concentrations, 3T3L1 cells
  adiponectin levels, in-vitro, separately: increased adiponectin levels
